Laboratory results: PubChem BioAssay AID248 (DTP/NCI, 2004)
Values joined by “and” are separate entries in the source; they are usually repeats but may differ in a detail not shown here. Identical values can stand only once. Inconclusive results and toxic doses are left out. No stated cut-off is given here; in the data, active means T/C of 150% or more; inactive means T/C below 125%.

Tested on: L1210 leukemia ip in BDF1 mice, survival T/C
Assay: NCI In Vivo Anticancer Drug Screen. Data for tumor model L1210 Leukemia (intraperitoneal) in B6D2F1 (BDF1) mice
Conditions: endpoint: mean survival time, higher = longer survival
Method in brief: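 Tumor was transplanted into mice, which were then dosed with test compound or vehicle alone. Survival was recorded for each group, and the treated figure was expressed relative to the control figure.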

[1] = dose: 100.0 mg/kg/injection, schedule: Q01DX001 (ip), vehicle: saline with Tween-80
[2] = dose: 100.0 mg/kg/injection, schedule: Q01DX009 (ip), vehicle: saline with Tween-80
[3] = dose: 100.0 mg/kg/injection, schedule: Q04DX002 (ip), vehicle: saline with Tween-80
[4] = dose: 100.0 mg/kg/injection, schedule: Q04DX003 (ip), vehicle: saline with Tween-80
[5] = dose: 200.0 mg/kg/injection, schedule: Q01DX001 (ip), vehicle: saline with Tween-80
[6] = dose: 200.0 mg/kg/injection, schedule: Q01DX009 (ip), vehicle: saline with Tween-80
[7] = dose: 200.0 mg/kg/injection, schedule: Q04DX002 (ip), vehicle: saline with Tween-80
[8] = dose: 200.0 mg/kg/injection, schedule: Q04DX003 (ip), vehicle: saline with Tween-80
[9] = dose: 400.0 mg/kg/injection, schedule: Q01DX001 (ip), vehicle: saline with Tween-80
[10] = dose: 400.0 mg/kg/injection, schedule: Q01DX009 (ip), vehicle: saline with Tween-80
[11] = dose: 400.0 mg/kg/injection, schedule: Q04DX002 (ip), vehicle: saline with Tween-80
[12] = dose: 400.0 mg/kg/injection, schedule: Q04DX003 (ip), vehicle: saline with Tween-80
[13] = dose: 50.0 mg/kg/injection, schedule: Q01DX001 (ip), vehicle: saline
[14] = dose: 100.0 mg/kg/injection, schedule: Q01DX001 (ip), vehicle: carboxymethylcellulose (CMC)
[15] = dose: 200.0 mg/kg/injection, schedule: Q01DX001 (ip), vehicle: carboxymethylcellulose (CMC)
[16] = dose: 400.0 mg/kg/injection, schedule: Q01DX001 (ip), vehicle: carboxymethylcellulose (CMC)
[17] = dose: 100.0 mg/kg/injection, schedule: Q01DX001 (ip), vehicle: saline
[18] = dose: 200.0 mg/kg/injection, schedule: Q01DX001 (ip), vehicle: saline
[19] = dose: 400.0 mg/kg/injection, schedule: Q01DX001 (ip), vehicle: saline
[20] = dose: 50.0 mg/kg/injection, schedule: Q01DX009 (ip), vehicle: saline with Tween-80

Measured: T/C

O=C(Nc1ccc(Cl)cc1[N+](=O)[O-])Nc1ccccc1C(F)(F)F
inactive: [1] 93 % of control | [2] 94 % of control and 90 % of control | [3] 95 % of control and 96 % of control | [4] 97 % of control | [5] 90 % of control | [6] 100 % of control and 92 % of control | [7] 93 % of control and 98 % of control | [8] 88 % of control | [9] 101 % of control | [10] 94 % of control and 87 % of control | [11] 91 % of control | [12] 88 % of control

COC(=O)c1ccc(NCC(C)(C)N)cc1
inactive: dose: 12.0 mg/kg/injection, schedule: Q01DX001 (ip), vehicle: saline 94 % of control | dose: 12.0 mg/kg/injection, schedule: Q01DX009 (ip), vehicle: saline 98 % of control | dose: 12.0 mg/kg/injection, schedule: Q04DX003 (ip), vehicle: saline 97 % of control | dose: 25.0 mg/kg/injection, schedule: Q01DX001 (ip), vehicle: saline 96 % of control | dose: 25.0 mg/kg/injection, schedule: Q01DX009 (ip), vehicle: saline 105 % of control | dose: 25.0 mg/kg/injection, schedule: Q04DX003 (ip), vehicle: saline 104 % of control | [13] 101 % of control | dose: 50.0 mg/kg/injection, schedule: Q01DX009 (ip), vehicle: saline 93 % of control | dose: 50.0 mg/kg/injection, schedule: Q04DX003 (ip), vehicle: saline 97 % of control

O=C(OC1CC2CC=CC21)c1ccc([N+](=O)[O-])cc1 (stereo unspecified)
inactive: [4] 96 % of control | [8] 98 % of control | [12] 94 % of control

CC(C)N(C(=O)Nc1cccc(C(F)(F)F)c1)C1CCCCC1
inactive: dose: 100.0 mg/kg/injection, schedule: Q01DX009 (ip), vehicle: gum acacia 90 % of control | dose: 200.0 mg/kg/injection, schedule: Q01DX009 (ip), vehicle: gum acacia 98 % of control | dose: 400.0 mg/kg/injection, schedule: Q01DX009 (ip), vehicle: gum acacia 88 % of control

Cc1ncc(C(O)(c2ccccc2)C(C)C)n1Cc1ccccc1 (stereo unspecified)
inactive: [1] 94 % of control | [2] 95 % of control and 96 % of control | [3] 95 % of control and 97 % of control | [4] 101 % of control | [5] 92 % of control | [6] 95 % of control and 108 % of control | [7] 93 % of control and 113 % of control | [8] 97 % of control | [9] 94 % of control | [10] 102 % of control | [11] 98 % of control and 103 % of control | [12] 101 % of control

Cc1ccc(S(=O)(=O)C(CC(=O)O)c2ccccc2)cc1 (stereo unspecified)
inactive: [14] 88 % of control | [15] 93 % of control | [16] 98 % of control

CC1([N+](=O)[O-])COP(=O)(O)OC1 (stereo unspecified) (tested in a mixture with another compound)
inactive: [14] 109 % of control | [17] 101 % of control [middle of 4 runs] | [15] 109 % of control | [18] 102 % of control [middle of 4 runs] | [16] 107 % of control | [19] 101 % of control and 102 % of control and 103 % of control

COC(=O)Nc1cc2c3c(c1)CCCN3CCC2
inactive: [20] 91 % of control | [2] 96 % of control

O=C(CC(=O)c1ccccc1)Nc1cccc([N+](=O)[O-])c1
inactive: [4] 90 % of control | [8] 86 % of control | [12] 86 % of control

O=[N+]([O-])c1ncn(C2CCCCO2)c1Br (stereo unspecified)
inactive: dose: 50.0 mg/kg/injection, schedule: Q04DX003 (ip), vehicle: gum acacia 99 % of control | dose: 100.0 mg/kg/injection, schedule: Q04DX003 (ip), vehicle: gum acacia 100 % of control | dose: 200.0 mg/kg/injection, schedule: Q04DX003 (ip), vehicle: gum acacia 100 % of control

CNc1nc2c(=O)[nH]c(N)nc2n1C1OC(CO)C(O)C1O (stereo unspecified)
inactive: dose: 50.0 mg/kg/injection, schedule: Q01DX001 (ip), vehicle: carboxymethylcellulose (CMC) 101 % of control | [14] 104 % of control | [15] 95 % of control | [16] 89 % of control

COc1ccccc1C1CCCC1OS(C)(=O)=O (stereo unspecified)
inactive: dose: 75.0 mg/kg/injection, schedule: Q04DX003 (ip), vehicle: saline 103 % of control | [17] 98 % of control | dose: 150.0 mg/kg/injection, schedule: Q04DX003 (ip), vehicle: saline 100 % of control | [18] 107 % of control | dose: 300.0 mg/kg/injection, schedule: Q04DX003 (ip), vehicle: saline 108 % of control | [19] 96 % of control

CC(=O)OC1CCC2(C)C(=CC=C3C2=CCC2(C)C(=O)CCC32)C1 (stereo unspecified)
inactive: [20] 87 % of control | [2] 90 % of control | [6] 90 % of control

ClCc1cccc2c(CCl)cccc12
inactive: [13] 101 % of control | [17] 101 % of control

CCC(C)(O)C#CC(C)(O)CC (stereo unspecified)
inactive: [17] 100 % of control | dose: 100.0 mg/kg/injection, schedule: Q01DX009 (ip), vehicle: saline 101 % of control | dose: 100.0 mg/kg/injection, schedule: Q04DX003 (ip), vehicle: saline 105 % of control | [18] 106 % of control | dose: 200.0 mg/kg/injection, schedule: Q01DX009 (ip), vehicle: saline 100 % of control | dose: 200.0 mg/kg/injection, schedule: Q04DX003 (ip), vehicle: saline 105 % of control | [19] 102 % of control | dose: 400.0 mg/kg/injection, schedule: Q04DX003 (ip), vehicle: saline 100 % of control

CS(=O)(=O)CCCl
inactive: dose: 100.0 mg/kg/injection, schedule: Q01DX009 (ip), vehicle: carboxymethylcellulose (CMC) 102 % of control and 106 % of control | dose: 100.0 mg/kg/injection, schedule: Q04DX002 (ip), vehicle: Klucel (hydroxypropylcellulose) (HPC) 103 % of control | dose: 100.0 mg/kg/injection, schedule: Q04DX002 (ip), vehicle: carboxymethylcellulose (CMC) 100 % of control and 109 % of control | dose: 100.0 mg/kg/injection, schedule: Q04DX003 (ip), vehicle: carboxymethylcellulose (CMC) 107 % of control | dose: 200.0 mg/kg/injection, schedule: Q01DX009 (ip), vehicle: carboxymethylcellulose (CMC) 98 % of control and 102 % of control | dose: 200.0 mg/kg/injection, schedule: Q04DX002 (ip), vehicle: Klucel (hydroxypropylcellulose) (HPC) 103 % of control | dose: 200.0 mg/kg/injection, schedule: Q04DX002 (ip), vehicle: carboxymethylcellulose (CMC) 97 % of control and 98 % of control | dose: 200.0 mg/kg/injection, schedule: Q04DX003 (ip), vehicle: carboxymethylcellulose (CMC) 98 % of control | dose: 400.0 mg/kg/injection, schedule: Q04DX002 (ip), vehicle: Klucel (hydroxypropylcellulose) (HPC) 103 % of control | dose: 400.0 mg/kg/injection, schedule: Q04DX002 (ip), vehicle: carboxymethylcellulose (CMC) 102 % of control and 105 % of control | dose: 400.0 mg/kg/injection, schedule: Q04DX003 (ip), vehicle: carboxymethylcellulose (CMC) 102 % of control

CCOC(=O)c1nc(N)n[nH]1
inactive: [4] 106 % of control | [8] 104 % of control | [12] 101 % of control

CNC(=O)OC(C)(C)C#N
inactive: [3] 101 % of control | [7] 101 % of control | [11] 106 % of control
